Results published in patent publication US12139488B2, “Pyrido[3,2-d]pyrimidine compounds uses thereof for treating a proliferative disease” (Universite de Montreal, priority 2021, dated 2024).
pIC50: −log10 of the molar value.

target: BRAF (Homo sapiens (Human), UniProt P15056); experiment: BRAF kinase activity assay (ADP-Glo); assay type: biochemical; details: read-out: Kinase IC50 (nM) BRAF
Summary of the method: (§1)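 Compound was tested at nine concentrations (0.01–100 nM, 0.05% DMSO final) against BRAF or CRAF phosphorylating MEK1 with ATP, for 2 h at 30 °C. ADP formed was read by ADP-Glo luminescence, and % inhibition was fitted with a four-parameter log(agonist) model to obtain IC50.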

BRAF, sequence (P15056 whole entry): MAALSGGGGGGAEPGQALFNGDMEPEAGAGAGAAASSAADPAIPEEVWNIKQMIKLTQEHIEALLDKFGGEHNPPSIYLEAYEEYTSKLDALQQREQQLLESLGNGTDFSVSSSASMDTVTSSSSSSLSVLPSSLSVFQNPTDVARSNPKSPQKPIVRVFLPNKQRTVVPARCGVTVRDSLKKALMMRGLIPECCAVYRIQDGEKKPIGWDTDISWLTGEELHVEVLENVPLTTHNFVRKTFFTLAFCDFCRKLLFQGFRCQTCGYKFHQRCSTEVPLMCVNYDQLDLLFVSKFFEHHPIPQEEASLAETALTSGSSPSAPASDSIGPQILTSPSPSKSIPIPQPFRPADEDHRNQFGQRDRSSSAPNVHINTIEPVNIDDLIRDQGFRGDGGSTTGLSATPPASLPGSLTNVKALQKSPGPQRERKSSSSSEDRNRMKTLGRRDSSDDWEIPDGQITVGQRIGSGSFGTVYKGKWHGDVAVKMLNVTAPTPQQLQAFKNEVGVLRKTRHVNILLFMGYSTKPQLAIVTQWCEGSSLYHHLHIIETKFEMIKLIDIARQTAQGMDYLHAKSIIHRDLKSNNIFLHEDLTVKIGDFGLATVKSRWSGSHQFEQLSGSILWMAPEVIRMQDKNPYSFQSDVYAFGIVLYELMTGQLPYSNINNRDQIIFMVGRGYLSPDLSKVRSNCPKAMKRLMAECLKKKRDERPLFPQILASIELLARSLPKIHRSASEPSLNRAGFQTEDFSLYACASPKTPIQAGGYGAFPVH

IC50 [nM] | SMILES
> 10 | COc1ccc(S(=O)(=O)Nc2ccc(F)c(Nc3ncnc4ccc(-n5cnc6c(C(N)=O)cccc65)nc34)c2F)c(C)c1 [Example 75]
1 to 10 | Nc1cccc2c1ncn2-c1ccc2ncnc(Nc3c(F)ccc(NS(=O)(=O)c4ccccc4Cl)c3F)c2n1 [Example 83]
< 1 | Nc1cccc2c1nnn2-c1ccc2ncnc(Nc3c(F)ccc(NS(=O)(=O)c4cccc(Cl)c4Cl)c3F)c2n1 [Example 100]

SMILES | IC50 [nM]
CN(C)C(=O)c1cn(-c2ccc3ncnc(Nc4c(F)ccc(NS(=O)(=O)c5ccccc5Cl)c4F)c3n2)c2cccc(N)c12 [Example 96] | < 1

target: CRAF (Homo sapiens, UniProt P04049); experiment: CRAF kinase activity assay (ADP-Glo); assay type: biochemical; details: read-out: Kinase IC50 (nM) CRAF
Sequence (P04049 whole entry, looked up): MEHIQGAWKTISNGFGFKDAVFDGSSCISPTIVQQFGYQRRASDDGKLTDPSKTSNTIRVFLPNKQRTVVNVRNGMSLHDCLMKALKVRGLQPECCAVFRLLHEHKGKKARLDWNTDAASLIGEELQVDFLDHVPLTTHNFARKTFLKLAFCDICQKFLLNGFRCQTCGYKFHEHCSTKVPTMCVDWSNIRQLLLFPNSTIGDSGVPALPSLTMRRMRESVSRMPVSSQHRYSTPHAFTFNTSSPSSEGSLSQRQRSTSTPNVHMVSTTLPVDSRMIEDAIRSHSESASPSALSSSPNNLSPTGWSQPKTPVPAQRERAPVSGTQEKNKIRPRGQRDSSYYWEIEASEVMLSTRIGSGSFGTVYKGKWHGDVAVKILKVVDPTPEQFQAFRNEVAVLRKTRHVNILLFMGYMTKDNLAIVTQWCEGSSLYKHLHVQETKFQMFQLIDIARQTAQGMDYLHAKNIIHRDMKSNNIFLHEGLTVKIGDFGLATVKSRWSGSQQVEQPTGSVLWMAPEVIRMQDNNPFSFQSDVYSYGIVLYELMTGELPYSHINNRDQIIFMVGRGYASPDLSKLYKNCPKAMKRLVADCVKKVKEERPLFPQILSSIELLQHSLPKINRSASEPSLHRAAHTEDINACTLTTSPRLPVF
Summary of the method: as §1

IC50 [nM] | SMILES
10 to 50 | COc1ccc(S(=O)(=O)Nc2ccc(F)c(Nc3ncnc4ccc(-n5cnc6c(C(N)=O)cccc65)nc34)c2F)c(C)c1 [Example 75]
< 10 | Nc1cccc2c1ncn2-c1ccc2ncnc(Nc3c(F)ccc(NS(=O)(=O)c4ccccc4Cl)c3F)c2n1 [Example 83]
< 10 | Nc1cccc2c1nnn2-c1ccc2ncnc(Nc3c(F)ccc(NS(=O)(=O)c4cccc(Cl)c4Cl)c3F)c2n1 [Example 100]

SMILES | IC50 [nM]
CN(C)C(=O)c1cn(-c2ccc3ncnc(Nc4c(F)ccc(NS(=O)(=O)c5ccccc5Cl)c4F)c3n2)c2cccc(N)c12 [Example 96] | > 50

target: ARAF (Homo sapiens (Human), UniProt P10398); experiment: ARAF kinase activity assay (AlphaLISA p-MEK 1/2 detection); assay type: biochemical; details: not given
Sequence (P10398 whole entry): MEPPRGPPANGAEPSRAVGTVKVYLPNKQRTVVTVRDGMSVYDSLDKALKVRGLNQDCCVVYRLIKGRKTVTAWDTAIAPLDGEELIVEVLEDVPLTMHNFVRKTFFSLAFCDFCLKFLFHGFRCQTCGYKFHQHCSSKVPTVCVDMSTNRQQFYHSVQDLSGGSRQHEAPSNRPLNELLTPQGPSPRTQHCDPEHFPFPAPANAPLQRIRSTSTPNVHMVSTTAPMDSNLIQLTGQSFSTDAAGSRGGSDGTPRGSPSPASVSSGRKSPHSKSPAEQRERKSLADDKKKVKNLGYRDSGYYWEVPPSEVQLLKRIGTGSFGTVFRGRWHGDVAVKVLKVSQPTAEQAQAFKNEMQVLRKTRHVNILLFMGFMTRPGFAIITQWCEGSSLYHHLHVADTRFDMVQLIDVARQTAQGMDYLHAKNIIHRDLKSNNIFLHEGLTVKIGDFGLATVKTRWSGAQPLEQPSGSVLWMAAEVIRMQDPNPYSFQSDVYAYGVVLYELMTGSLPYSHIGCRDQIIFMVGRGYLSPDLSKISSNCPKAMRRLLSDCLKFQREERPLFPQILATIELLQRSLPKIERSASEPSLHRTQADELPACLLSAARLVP
Protocol: Compound preparation: solid samples of each substances in 1 dram vials were suspended in DMSO (Fisher Scientific) at a stock concentration of 20 mM. Stocks were kept at −20° C. and protected from light. If solubility of the compound at 20 mM appeared to be an issue, the initial concentration of the DMSO stock was changed to 10 mM or 5 mM.
In vitro enzymatic reactions were used for evaluating compounds intrinsic activity against BRAF, CRAF and ARAF. For BRAF and CRAF, 0.375 nM of purified GST-tagged kinases (cat #B4062-10 UG and cat #R1656-10 UG respectively from Millipore Sigma) were incubated with 75 nM of kinase-dead MEK1 substrate (cat #40075; BPS Bioscience) in the presence of 10 μM of Ultrapure ATP (cat #V9102; Promega; part V915A) with and without the test compound in a buffer containing 50 mM HEPES pH 7.5, 10 mM MgCl2, 1 mM EDTA, 0.01% Brij-35 and 2 mM DTT. Separate reactions were performed with the MEK1 substrate and ATP as a blank control. ARAF, kinase reactions were rigorously the same with the exception that kinase concentration was raised to 3.75 nM (cat #1768-0000-1; Reaction Biology).
For compound treatment, 5 μL/well of test substance solution are placed in a 384-well proxyplate (Perkin Elmer) and mixed with 2× concentrated kinase reactions. The dilution series is selected so that nine concentrations cover a range from 100 nM to 0.01 nM. […] The final concentration of DMSO in the assay is set at 0.05%.
ARAF kinase reactions were carried out for a total of 2 hours at 30° C. and then stopped by addition of EDTA at a final concentration of 40 mM. Reactions were then detected using the AlphaLISA® SureFire® Ultra™ p-MEK 1/2 (Ser218/222) (PerkinElmer) kit. Reactions were performed with 5 μL of kinase reaction according to the manufacturer's specifications in 384-well proxyplates (Perkin Elmer) followed by overnight incubation of the AlphaLISA® reactions at room temperature in a humidified chamber. After completion of the detection reactions, the signals were recorded on a Synergy Neo2 plate reader (Biotek) equipped with AlphaLISA® filters. The effect of each compound dilution on the pMEK signal generated by ARAF reactions was expressed in % inhibition and calculated as follows. An internal 100% inhibition control (average of luminescence in kinase reactions comprising kinase dead MEK1 substrate alone) was included in each plate to measure of pMEK background and was subtracted from each data point. The average of DMSO (vehicle) controls (set as 0% inhibition) was also established and used to calculate % inhibition: % inhibition=100*(1−((pMEK signalcompound)/(pMEK signalDMSO)))
IC50 values were obtained by plotting the kinase inhibition values and fitting the dose-activity curves using a log(agonist) versus response-variable slope (four parameters) function using either GraphPadPrism (V7.0) or Dotmatics Screening Ultra platform. Standards included in the ARAF kinase assay were Belvarafenib (MedChem Express cat #HY-109080; CAS #1446113-23-0), LXH254 (MedChem Express cat #HY-112089; CAS #1800398-38-2) and BGB283 (cat #HY-18957; CAS #1446090-79-4).

IC50 [nM] | SMILES
> 10 | O=C1CCc2c(Oc3ccc4c(c3)[C@@H]3[C@H](O4)[C@H]3c3nc4ccc(C(F)(F)F)cc4[nH]3)ccnc2N1 [BGB283, reference compound]
1 to 10 | Cc1nc(N)ccc1S(=O)(=O)Nc1ccc(F)c(Nc2ncnc3ccc(-n4cnc5c(N)cccc54)nc23)c1F [Example 353]
> 10 | Cc1ccc(NC(=O)c2ccnc(C(F)(F)F)c2)cc1-c1cc(OCCO)nc(N2CCOCC2)c1 [LXH254, reference compound]

tested on: pERK in HCT-116 cells (KRAS G13D); experiment: Phospho-ERK inhibition (AlphaLISA SureFire Ultra p-ERK 1/2), HCT116; assay type: cell-based, human; details: HCT116 cells; Ymin in brackets
Summary of the method: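 p-ERK1/2 (Thr202/Tyr204) in lysates measured by AlphaLISA after 1 h compound exposure of overnight-plated cells (RPMI-1640, 5% FBS, 0.5% DMSO, ten concentrations, usually from 10 μM). Background from a trametinib control subtracted, inhibition normalised to vehicle, and IC50 fitted with a variable-slope four-parameter model.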

SMILES | HCT116 pERK Ymin % [%]
COc1ccc(S(=O)(=O)Nc2ccc(F)c(Nc3ncnc4ccc(-n5cnc6c(C(N)=O)cccc65)nc34)c2F)c(C)c1 [Example 75] | 0
Nc1cccc2c1ncn2-c1ccc2ncnc(Nc3c(F)ccc(NS(=O)(=O)c4ccccc4Cl)c3F)c2n1 [Example 83] | −7.3
CN(C)C(=O)c1cn(-c2ccc3ncnc(Nc4c(F)ccc(NS(=O)(=O)c5ccccc5Cl)c4F)c3n2)c2cccc(N)c12 [Example 96] | 12
Nc1cccc2c1nnn2-c1ccc2ncnc(Nc3c(F)ccc(NS(=O)(=O)c4cccc(Cl)c4Cl)c3F)c2n1 [Example 100] | −16

same assay, conditions: HCT116 cells; class symbol

pIC50 | SMILES
5.00 to 6.00 | Cc1nc(N)ccc1S(=O)(=O)Nc1ccc(F)c(Nc2ncnc3ccc(-n4cnc5c(N)cccc54)nc23)c1F [Example 353]

same assay, conditions: HCT116 cells; class symbol before the bracket

pIC50 | SMILES
6.00 to 6.30 | COc1ccc(S(=O)(=O)Nc2ccc(F)c(Nc3ncnc4ccc(-n5cnc6c(C(N)=O)cccc65)nc34)c2F)c(C)c1 [Example 75]
> 6.30 | Nc1cccc2c1ncn2-c1ccc2ncnc(Nc3c(F)ccc(NS(=O)(=O)c4ccccc4Cl)c3F)c2n1 [Example 83]
> 6.30 | Nc1cccc2c1nnn2-c1ccc2ncnc(Nc3c(F)ccc(NS(=O)(=O)c4cccc(Cl)c4Cl)c3F)c2n1 [Example 100]

SMILES | pIC50
CN(C)C(=O)c1cn(-c2ccc3ncnc(Nc4c(F)ccc(NS(=O)(=O)c5ccccc5Cl)c4F)c3n2)c2cccc(N)c12 [Example 96] | > 6.30

tested on: pERK in SW480 cells (KRAS G12D); experiment: Phospho-ERK inhibition (AlphaLISA), SW480; assay type: cell-based, human; details: SW480 cells; Ymin in brackets
Protocol: All cancer cell lines (A375, A101D, A2058, RKO, HT29 SK-MEL 30, IPC298, HepG2, HCT-116, Lovo, SWV620, SW480, NCI-H358, NCI-H2122, Calu-6, NCIH2087, NCIH1755, NCIH1666 and Mewo) were obtained from ATCC and cultured in RPMI-1640 medium (Gibco) supplemented with 5% heat inactivated fetal bovine serum (FBS, Wisent) at 37° C. under 5% CO2. Cells were maintained in T175 flasks (Greiner). They were passaged by removing the culture medium, washing once in 10 mL of room temperature Phosphate Buffered Saline (PBS; Wisent) and incubating at 37° C. with 2 mL of 0.05% Trypsin (Thermo-Fisher). Trypsin was then inactivated by adding complete growth medium and the cells were then replated in a T175 culture dish at the appropriate dilution. All cell lines were routinely tested for mycoplasma contamination. Tissue type and mutational status of each cell line can be found in Table B.
AlphaLISA® SureFire® Ultra™ p-ERK 1/2 (Thr202/Tyr204) analysis was conducted on cells plated in 100 μL of complete RPMI-1640 growth medium in 96-well flat-bottomed transparent dishes (Costar) at a density indicated in Table C. Cells were maintained overnight at 37° C. under 5% CO2 before treatment with compounds' dilution series for one hour. The cell density in cells/cm^2 corresponds to cell number divided by the area of one well of a 96-well plate ([…]).
In a dilution series 100 μL/well of test substance dilution prepared in complete RPMI-1640 growth media was added to the cells. The dilution series is selected so that ten concentrations cover a range from 10 μM to 0.33 nM. If necessary the initial concentration of 10 μM is increased to 100 μM or lowered to 1 μM (as in the case of A375 and H1666 cells, which are generally more sensitive to the compounds) and further dilution is carried out accordingly. The final concentration of DMSO in the assay is set at 0.5%.
After treatment, media was removed and cells were lysed in 50 μL of 1× AlphaScreen Ultra Lysis Buffer (Perkin Elmer). The AlphaLISA® SureFire® Ultra™ p-ERK 1/2 (Thr202/Tyr2O4) (PerkinElmer) reactions were performed with 5 μL of cell lysate according to the manufacturer's specifications in 384-well proxyplates (Perkin Elmer) followed by overnight incubation of the reactions at room temperature in a humidified chamber. After completion of the reactions, the signals were recorded on an EnVision plate reader (Perkin Elmer) using built in AlphaLISA® settings.
The effect of each compound dilution on the pERK signal was expressed in % inhibition and calculated as follows. An internal 100% inhibition control ([…] trametinib, cat #HY-10999; MedChem Express; CAS #871700-17-3) was included in each plate and used as a measure of pERK background. First, the value obtained for trametinib was subtracted from each data point. The average of DMSO (vehicle) controls (set as 0% inhibition) was established and used to calculate % inhibition: % inhibition=100*(1-((pERK signalcompound)/(pERK signalDMSO)))
The ability of each compound to inhibit pERK signal was expressed as an IC50 value obtained by plotting the inhibition values for each data point of a dilution series and fitting the obtained curves using a log(agonist) versus response-variable slope (four parameters) function using GraphPadPrism (V7.0) or Dotmatics Screening Ultra platform.
When present, paradoxical pERK induction is inferred from the negative % inhibition values observed in the pERK IC50 curves of a compound.

SMILES | SW480 pERK Ymin % [%]
COc1ccc(S(=O)(=O)Nc2ccc(F)c(Nc3ncnc4ccc(-n5cnc6c(C(N)=O)cccc65)nc34)c2F)c(C)c1 [Example 75] | 1
Nc1cccc2c1ncn2-c1ccc2ncnc(Nc3c(F)ccc(NS(=O)(=O)c4ccccc4Cl)c3F)c2n1 [Example 83] | 2.5
CN(C)C(=O)c1cn(-c2ccc3ncnc(Nc4c(F)ccc(NS(=O)(=O)c5ccccc5Cl)c4F)c3n2)c2cccc(N)c12 [Example 96] | 12
Nc1cccc2c1nnn2-c1ccc2ncnc(Nc3c(F)ccc(NS(=O)(=O)c4cccc(Cl)c4Cl)c3F)c2n1 [Example 100] | 16

same assay, conditions: SW480 cells; class symbol before the bracket

pIC50 | SMILES
6.00 to 6.30 | COc1ccc(S(=O)(=O)Nc2ccc(F)c(Nc3ncnc4ccc(-n5cnc6c(C(N)=O)cccc65)nc34)c2F)c(C)c1 [Example 75]
> 6.30 | Nc1cccc2c1ncn2-c1ccc2ncnc(Nc3c(F)ccc(NS(=O)(=O)c4ccccc4Cl)c3F)c2n1 [Example 83]
> 6.30 | Nc1cccc2c1nnn2-c1ccc2ncnc(Nc3c(F)ccc(NS(=O)(=O)c4cccc(Cl)c4Cl)c3F)c2n1 [Example 100]

SMILES | pIC50
CN(C)C(=O)c1cn(-c2ccc3ncnc(Nc4c(F)ccc(NS(=O)(=O)c5ccccc5Cl)c4F)c3n2)c2cccc(N)c12 [Example 96] | > 6.30
